In patent US11285127B2, “Compositions and methods for lowering triglycerides without raising LDL-C levels in a subject on concomitant statin therapy” (Amarin Pharmaceuticals Ireland Limited, priority 2013, dated 2022):

System: patients with fasting triglyceride levels >200 mg/dl and <500 mg/dl despite statin therapy
Experiment: 12-week placebo-controlled study of >96% E-EPA: fasting triglycerides (TG), incl. TG goal
Type: in vivo, human
Details: for Median reduction in triglycerides compared to baseline / TG Median % chg from BL / TG, Diff from pbo (Hodges-Lehmann median difference) / TG, EOT (Week 12 endpoint) median / TG Diff from pbo (median % chg, Hodges-Lehmann) / TG EOT Median / Fasting Triglycerides, Week 12 EP Median (IQR): MITT; for Median reduction in triglycerides compared to baseline / Percentage Achieving TG Goal (less than 150 mg/dL): Week 12; for Fasting Triglycerides, Percent change from Baseline, Median (IQR) / Fasting Triglycerides, Difference from placebo, Estimated median: Week 12, MITT; for Fasting Triglycerides, Difference from placebo, Estimated median: difference in percent change
Description: A multi-center, placebo-controlled, randomized, double-blind, 12-week study was performed to evaluate the efficacy and safety of >96% E-EPA in patients with fasting triglyceride levels >200 mg/dl and <500 mg/dl despite statin therapy (the mean of two qualifying entry values needed to be >185 mg/dl and at least one of the values needed to be >200 mg/dl). The primary objective of the study was to determine the efficacy of >96% E-EPA 2 g daily and 4 g daily, compared to placebo, in lowering fasting TG levels in patients with high risk for cardiovascular disease and with fasting TG levels 200 mg/dl and <500 mg/dl, despite treatment to LDL-C goal on statin therapy. The population for this study was men and women >18 years of age with a body mass index ≤45 kg/m^2 with fasting TG levels greater than or equal to 200 mg/dl and less than 500 mg/dl and on a stable does of statin therapy (with or without ezetimibe). The statin was atorvostatin, rosuvastatin or simvastatin. The dose of statin must have been stable for ≥4 weeks prior to the LDL-C/TG baseline qualifying measurement for randomization. The statin dose was optimized such that the patients are at their LDL-C goal at the LDL-C/TG baseline qualifying measurements. The same statin at the same dose was continued until the study ended. Approximately 702 patients were randomized at approximately 80 centers in the U.S. The study was a 18- to 20-week, Phase 3, multi-center study consisting of 2 study periods: (1) A 6- to 8-week screening period that included a diet and lifestyle stabilization, a non-statin lipid-altering treatment washout, and an LDL-C and TG qualifying period and (2) A 12-week, double-blind, randomized, placebo-controlled treatment period. After confirmation of qualifying fasting LDL-C and TG values, eligible patients entered a 12-week, randomized, double-blind treatment period. At Visit 4 (Week 0), patients were randomly assigned to 1 of the following treatment groups: • >96% E-EPA 2 g daily, • >96% E-EPA 4 g daily, or • Placebo. During the double-blind treatment period, patients were to take 2 capsules (>96% E-EPA or matching placebo) in the morning and 2 capsules in the evening for a total of 4 capsules per day. • Patients in the >96% E-EPA 2 g/day treatment group received 1>96% E-EPA 1 g capsule and 1 matching placebo capsule in the morning and in the evening. • Patients in the >96% E-EPA 4 g/day treatment group received 2>96% E-EPA 1 g capsules in the morning and evening. The primary efficacy variable for the double-blind treatment period was percent change in TG from baseline to Week 12 endpoint. The secondary efficacy variables for the double-blind treatment period included the following: • Percent changes in total cholesterol (TC), high-density lipoprotein cholesterol (HDL-C), LDL-C, calculated non-HDL-C, and very low-density lipoprotein cholesterol (VLDL-C) from baseline to Week 12 endpoint; • Percent change in very low-density lipoprotein TG from baseline to Week 12; • Percent changes in apolipoprotein A-I (Apo A-1), apolipoprotein B (Apo B), and Apo A-1/Apo B ratio from baseline to Week 12; • Percent changes in lipoprotein(a) from baseline to Week 12; • Percent changes in LDL particle number and size, measured by nuclear magnetic resonance, from baseline to Week 12; • Percent change in remnant-like particle cholesterol from baseline to Week 12; • Percent change in oxidized LDL from baseline to Week 12; • Changes in FPG and HbA1c from baseline to Week 12; • Change in insulin resistance, as assessed by the homeostasis model index insulin resistance, from baseline to Week 12; • Percent change in lipoprotein associated phospholipase A2 (Lp-PLA2) from baseline to Week 12; • Change in intracellular adhesion molecule-1 from baseline to Week 12; • Change in interleukin-2 from baseline to Week 12; • Change in plasminogen activator inhibitor-1 from baseline to Week 12. […]

[1] = AMR 101 2 g + statin, Atorva subgroup
[2] = AMR 101 2 g + statin, Rosuva subgroup
[3] = AMR 101 2 g + statin, Simva subgroup
[4] = AMR 101 2 g + statin, Statin Potency High
[5] = AMR 101 2 g + statin, Statin Potency Low
[6] = AMR 101 2 g + statin, Statin Potency Medium
[7] = AMR 101 2 g + statin, Diabetes No, Week 12 endpoint
[8] = AMR 101 2 g + statin, Diabetes Yes, Week 12 endpoint
[9] = AMR 101 2 g + statin, Non-statin Washout No, Week 12 endpoint
[10] = AMR 101 2 g + statin, Non-statin Washout Yes, Week 12 endpoint
[11] = AMR 101 2 g + statin, baseline TG tertile Highest (≥289.5 mg/dL), Week 12 endpoint
[12] = AMR 101 2 g + statin, baseline TG tertile Lowest (<230.5 mg/dL), Week 12 endpoint
[13] = AMR 101 2 g + statin, baseline TG tertile Middle (230.5 to <289.5 mg/dL), Week 12 endpoint
[14] = AMR 101 4 g + statin, Atorva subgroup
[15] = AMR 101 4 g + statin, Rosuva subgroup
[16] = AMR 101 4 g + statin, Simva subgroup
[17] = AMR 101 4 g + statin, Statin Potency High
[18] = AMR 101 4 g + statin, Statin Potency Low
[19] = AMR 101 4 g + statin, Statin Potency Medium
[20] = AMR 101 4 g + statin, Diabetes No, Week 12 endpoint
[21] = AMR 101 4 g + statin, Diabetes Yes, Week 12 endpoint
[22] = AMR 101 4 g + statin, Non-statin Washout No, Week 12 endpoint
[23] = AMR 101 4 g + statin, Non-statin Washout Yes, Week 12 endpoint
[24] = AMR 101 4 g + statin, baseline TG tertile Highest (≥289.5 mg/dL), Week 12 endpoint
[25] = AMR 101 4 g + statin, baseline TG tertile Lowest (<230.5 mg/dL), Week 12 endpoint
[26] = AMR 101 4 g + statin, baseline TG tertile Middle (230.5 to <289.5 mg/dL), Week 12 endpoint
[27] = IPE 4 g/day (n = 216), 12 weeks, patients with lipoprotein data

CC/C=C\C/C=C\C/C=C\C/C=C\C/C=C\CCCC(=O)OCC [AMR101, ethyl eicosapentaenoate]
Median reduction in triglycerides compared to baseline (2 g/day): 2.6%
Percentage Achieving TG Goal (less than 150 mg/dL) (2 g/day): 3.8%
Subjects who Achieved TG Goal (less than 150 mg/dL), number (2 g/day, Week 12, total n 234): 9
Median reduction in triglycerides compared to baseline (4 g/day): 17.5%
Percentage Achieving TG Goal (less than 150 mg/dL) (4 g/day): 7.1%
Subjects who Achieved TG Goal (less than 150 mg/dL), number (4 g/day, Week 12, total n 226): 16
TG Median % chg from BL [1]: −0.5%
TG, Diff from pbo (Hodges-Lehmann median difference) [1]: −2.4
TG, EOT (Week 12 endpoint) median [1]: 245.0
TG Median % chg from BL [2]: −5.8%
TG, Diff from pbo (Hodges-Lehmann median difference) [2]: −5.7
TG, EOT (Week 12 endpoint) median [2]: 252.5
TG Median % chg from BL [3]: −8.8%
TG, Diff from pbo (Hodges-Lehmann median difference) [3]: −14.3
TG, EOT (Week 12 endpoint) median [3]: 241.3
TG Median % chg from BL [4]: −5.8%
TG, Diff from pbo (Hodges-Lehmann median difference) [4]: −11.7
TG, EOT (Week 12 endpoint) median [4]: 239.5
TG Median % chg from BL [5]: −18.8%
TG, Diff from pbo (Hodges-Lehmann median difference) [5]: −13.8
TG, EOT (Week 12 endpoint) median [5]: 208.5
TG Median % chg from BL [6]: −5.3%
TG, Diff from pbo (Hodges-Lehmann median difference) [6]: −8.7
TG, EOT (Week 12 endpoint) median [6]: 248.0
TG Diff from pbo (median % chg, Hodges-Lehmann) [7]: −10.8%
TG EOT Median [7]: 245.0 mg/dL
TG Median % chg from BL [7]: −12.1%
TG Diff from pbo (median % chg, Hodges-Lehmann) [8]: −9.8%
TG EOT Median [8]: 244.0 mg/dL
TG Median % chg from BL [8]: −1.5%
TG Diff from pbo (median % chg, Hodges-Lehmann) [9]: −10.7%
TG EOT Median [9]: 229.0 mg/dL
TG Median % chg from BL [9]: −7.9%
TG Diff from pbo (median % chg, Hodges-Lehmann) [10]: −9.5%
TG EOT Median [10]: 249.5 mg/dL
TG Median % chg from BL [10]: −4.2%
TG Diff from pbo (median % chg, Hodges-Lehmann) [11]: −16.9%
TG EOT Median [11]: 320.3 mg/dL
TG Median % chg from BL [11]: −8.7%
TG Diff from pbo (median % chg, Hodges-Lehmann) [12]: −4.1%
TG EOT Median [12]: 207.8 mg/dL
TG Median % chg from BL [12]: 0.7%
TG Diff from pbo (median % chg, Hodges-Lehmann) [13]: −9.9%
TG EOT Median [13]: 228.3 mg/dL
TG Median % chg from BL [13]: −13.0%
Fasting Triglycerides, Week 12 EP Median (IQR) (AMR101 2 g/d + statin, n 234): 244.3 (117.0)
Fasting Triglycerides, Percent change from Baseline, Median (IQR) (AMR101 2g/d + statin): −5.6 (34.5) %
Fasting Triglycerides, Difference from placebo, Estimated median (AMR101 2g/d + statin): −10.1
TG Median % chg from BL [14]: −23.9%
TG, Diff from pbo (Hodges-Lehmann median difference) [14]: −28.4
TG, EOT (Week 12 endpoint) median [14]: 216.0
TG Median % chg from BL [15]: −20.5%
TG, Diff from pbo (Hodges-Lehmann median difference) [15]: −23.4
TG, EOT (Week 12 endpoint) median [15]: 204.0
TG Median % chg from BL [16]: −14.7%
TG, Diff from pbo (Hodges-Lehmann median difference) [16]: −18.8
TG, EOT (Week 12 endpoint) median [16]: 228.0
TG Median % chg from BL [17]: −20.2%
TG, Diff from pbo (Hodges-Lehmann median difference) [17]: −26.0
TG, EOT (Week 12 endpoint) median [17]: 214.5
TG Median % chg from BL [18]: 0.5%
TG, Diff from pbo (Hodges-Lehmann median difference) [18]: −13.1
TG, EOT (Week 12 endpoint) median [18]: 256.8
TG Median % chg from BL [19]: −15.8%
TG, Diff from pbo (Hodges-Lehmann median difference) [19]: −20.1
TG, EOT (Week 12 endpoint) median [19]: 221.0
TG Diff from pbo (median % chg, Hodges-Lehmann) [20]: −16.8%
TG EOT Median [20]: 234.5 mg/dL
TG Median % chg from BL [20]: −15.0%
TG Diff from pbo (median % chg, Hodges-Lehmann) [21]: −23.2%
TG EOT Median [21]: 216.5 mg/dL
TG Median % chg from BL [21]: −18.7%
TG Diff from pbo (median % chg, Hodges-Lehmann) [22]: −20.8%
TG EOT Median [22]: 220.0 mg/dL
TG Median % chg from BL [22]: −16.7%
TG Diff from pbo (median % chg, Hodges-Lehmann) [23]: −22.4%
TG EOT Median [23]: 220.8 mg/dL
TG Median % chg from BL [23]: −17.7%
TG Diff from pbo (median % chg, Hodges-Lehmann) [24]: −31.1%
TG EOT Median [24]: 260.0 mg/dL
TG Median % chg from BL [24]: −21.8%
TG Diff from pbo (median % chg, Hodges-Lehmann) [25]: −14.4%
TG EOT Median [25]: 183.5 mg/dL
TG Median % chg from BL [25]: −10.9%
TG Diff from pbo (median % chg, Hodges-Lehmann) [26]: −17.9%
TG EOT Median [26]: 205.0 mg/dL
TG Median % chg from BL [26]: −19.3%
Fasting Triglycerides, Week 12 EP Median (IQR) (AMR101 4 g/d + statin, n 226): 220.8 (92.0)
Fasting Triglycerides, Percent change from Baseline, Median (IQR) (AMR101 4g/d + statin): −17.5 (31.0) %
Fasting Triglycerides, Difference from placebo, Estimated median (AMR101 4g/d + statin): −21.5
TG, Change From Baseline, % (median) [27]: −17.5%
TG, End of Treatment (median) [27]: 219.3 mg/dL
TG, Median Change From Baseline IPE 4 g/day vs Placebo, % (IPE 4 g/day vs placebo, 12 weeks, Hodges-Lehmann median): −21.1%
